Experimental findings from US11441119B2, “Culture media comprising n-Acyl-X-glutamine dipeptides” (Evonik Operations GmbH, priority 2017, dated 2022) are described below.

Experiment [1] has as its system Chinese Hamster Ovary (CHO) cells (Subclone DG44). Briefly: Batch cultivation of CHO DG44 cells in glutamine-free PowerCHO-2 CD medium supplemented with glutamine sources: growth and productivity. The class given is cell-based. The settings on record: for Relative cell-specific productivity: relative titer/IVCD relative to 100% free glutamine; for Relative time-related productivity: relative titer/cultivation time relative to free glutamine; for Relative titer / Cultivation time until 80% viability / Integrated viable cell density (IVCD): total glutamine 8 mM; for Relative titer: relative to titer of 100% free glutamine; for Cultivation time until 80% viability / Integrated viable cell density (IVCD): third passage; for Integrated viable cell density (IVCD): until viability below 80%; for Performance in batch cultivation, in words (titer, productivities): comparison of the supplements of Tables 1 and 2. How it is done: Acetyl-A-Q was mixed with free glutamine or A-Q in molar ratios between 0 and 100%. The mixtures were added to a glutamine-free medium (PowerCHO-2 CD, Lonza AG, Visp, Switzerland) to obtain a total glutamine concentration of 8 mM in the final medium. Growth and productivity were measured using Chinese Hamster Ovary (CHO) cells (Subclone DG44; Life Technologies Cooperation, Carlsbad, USA). Cultivation was continued up to the point where the viability of the culture dropped below 80%. Data from the third passage was used. All titer-related information is given relative to the titer of 100% free glutamine. Accordingly, the relative cell-specific productivity was obtained by first dividing the relative titer by the integrated viable cell density (IVCD), then dividing this number by the titer/IVCD ratio for 100% free glutamine. The relative time-specific productivity was obtained by dividing the relative titer by the cultivation duration until the sampling, then dividing this number by the titer/cultivation time ratio for free glutamine. In a second set of experiments within the same experimental campaign, acetyl-A-Q was mixed with A-Q and tested under the same conditions as described above. The 100% points for acetyl-A-Q as well as the free glutamine reference are identical to the first example.

For experiment [2] the test system is unchanged. The experiment can be described thus: Fed-batch cultivation of CHO DG44 cells with glutamine sources in basal medium and feed supplement: growth and productivity. The class given is cell-based. The procedure: Free glutamine, A-Q or Acetyl-A-Q were added to a glutamine-free medium (PowerCHO-2 CD, Lonza AG, Visp, Switzerland) to obtain a total glutamine concentration of 8 mM in the final medium.
In addition, these substances as well as a 75% mixture of acetyl-A-Q and A-Q were added to a glutamine-free formulation of a commercial feed supplement (CHOMACS Feed Supplement, Miltenyi Biotech, Germany) to yield a glutamine concentration of 5.5 g/L. Growth and productivity were measured using Chinese Hamster Ovary (CHO) cells (Subclone DG44; Life Technologies Cooperation, Carlsbad, USA).The results are summarized in Table 3. All titer-related information is given relative to the titer obtained by adding free glutamine to basal medium and feed. Accordingly, the relative cell-specific productivity was obtained by first dividing the relative titer by the integrated viable cell density (IVCD), then dividing this number by the titer/IVCD ratio for 100% free glutamine. The relative time-specific productivity was obtained by dividing the relative titer by the cultivation duration until the sampling, then dividing this number by the titer/cultivation time ratio for free glutamine.

Where [3] appears, read: basal medium source/feed source, 8 mM glutamine in medium, 5.5 g/L in feed.

Residues, ends and D or L forms follow the SMILES beside them.

As to `C[C@H](N)C(=O)N[C@@H](CCC(N)=O)C(=O)O` [100% AQ, alanyl-glutamine] (H-Ala-Gln-OH), in experiment [1] (acetyl-A-Q mixed with A-Q), the Relative cell-specific productivity stood at 75%, the Relative time-related productivity is recorded as 102%, the Relative titer came to 1.10 and the “Cultivation time until 80% viability” value is listed as 13.9. Also, the “Integrated viable cell density (IVCD)” value in experiment [1] (acetyl-A-Q mixed with A-Q) is given as 47.1. The “Performance in batch cultivation, in words (titer, productivities)” value in experiment [1] is “performs at a lower level in all relevant categories”.

In the case of `NC(=O)CC[C@H](N)C(=O)O` [100% Q, L-glutamine], in experiment [1] (acetyl-A-Q mixed with A-Q), the Relative cell-specific productivity is 100%, the Relative time-related productivity was 100%, the Relative titer was found to be 1.00 and the “Cultivation time until 80% viability” value was found to be 12.9. For the same compound, the “Integrated viable cell density (IVCD)” value in experiment [1] (acetyl-A-Q mixed with A-Q) is listed as 32.0. Besides, in experiment [1] (acetyl-A-Q mixed with free Q), the Relative cell-specific productivity stood at 100%, the Relative time-related productivity is 100%, the Relative titer was 1.00 and the “Cultivation time until 80% viability” value was 12.9. Further, the “Integrated viable cell density (IVCD)” value in experiment [1] (acetyl-A-Q mixed with free Q) is 32.0.

For the compound `CC(=O)N[C@@H](C)C(=O)N[C@@H](CCC(N)=O)C(=O)O` [100% acetyl-A-Q, acetyl-A-Q] (Ac-Ala-Gln-OH), in experiment [1] (acetyl-A-Q mixed with A-Q), the Relative cell-specific productivity came out at 434%, the Relative time-related productivity was 99%, the Relative titer is 1.37 and the “Cultivation time until 80% viability” value is given as 17.9. For the same compound, in experiment [1] (acetyl-A-Q mixed with A-Q), the “Integrated viable cell density (IVCD)” value is listed as 10.1. In experiment [1] (acetyl-A-Q mixed with free Q), the Relative cell-specific productivity was determined as 434%, the Relative time-related productivity worked out at 99%, the Relative titer was 1.37 and the “Cultivation time until 80% viability” value was found to be 17.9. In addition, in experiment [1] (acetyl-A-Q mixed with free Q), the “Integrated viable cell density (IVCD)” value is listed as 10.1. In addition, the “Performance in batch cultivation, in words (titer, productivities)” value in experiment [1] is “best values for relative titer and cell-specific productivity”. In experiment [2] (comparison of the combinations of Table 3), the “Performance in fed-batch cultivation, in words (productivity, cell density, titer)” value is on record as “very high cell-specific productivities, but very low cell density”.

Regarding `CC(=O)N[C@@H](C)C(=O)N[C@@H](CCC(N)=O)C(=O)O` [Acetyl A-Q/acetyl-A-Q] (Ac-Ala-Gln-OH), in experiment [2] (setting [3]), the “Cultivation time until 80% viability” value is recorded as 15.0 and the “Integrated viable cell density (IVCD)” value was found to be 8.2. This compound also returned a Relative cell-specific productivity in experiment [2] (relative titer/IVCD relative to 100% free glutamine) of 145%. The compound further showed a Relative time-related productivity in experiment [2] (relative titer/cultivation time relative to free glutamine) of 18%. The compound further showed a Relative titer in experiment [2] (relative to titer with free glutamine in basal medium and feed) of 0.2.
